# Square brackets hold non-standard residues; d marks the D form. Peptide text beside a SMILES is read from it. Arg(Me) = CNC(=N)NCCC[C@H](N)C(=O)O
# Legend:
# [1] = In vitro stability experiment of cell-penetrating peptides in human plasma
# Description: (§1) 5 μL of stock solution (10 mM) was diluted with 495 μL of 0.05 M sodium phosphate buffer to 100 μM of dosing solution. The final concentration of tested drug for incubation was 10 μM.
# (§2) A certain volume (e.g., 27 μL or 24 μL) of plasma was added into a 96-well plate. An appropriate volume of the internal standard working solution (e.g., 150 μL) was immediately added to precipitate. […] This was performed in duplicate.
# (§3) Then, an appropriate amount of plasma (e.g., 27 μL or 24 μL) was added at the designed time points (e.g., 5 min, 15 min, 30 min, 60 min, and 120 min, etc.), and the parallel replicate wells were performed at each time point. […] The reaction was terminated by adding an appropriate amount of internal standard working solution (e.g., 150 μL) at the end of the time, and the mixture was mixed thoroughly.
# (§4) The mixture was centrifuged at 4000 rpm for 15 min. A certain amount of the supernatant was taken, mixed with a certain amount of water, and then subjected to LC/MS/MS analysis. LC-MS detection conditions were as follows: • Chromatography column: YMC Triart C18, 50*3.0 mm, 2.1 μm. • Mobile phase: Gradient elution was performed using water (0.1% formic acid)-acetonitrile according to the table below.
# (§5) The relative content of drug at each time point was calculated using the initial 0 point as 100%. The half-life of the drug was calculated by plotting “relative drug content” against “incubation time” using GraphPad Prism 5 software.
# [2] = target: PDZ1-2 of PSD95 (Homo sapiens, UniProt P78352); assay: Fluorescence polarization competition binding assay of PDZ1-2 with probe 5-FAM-NA-1
# [3] = In vitro plasma stability experiment (compounds), without or with tPA; conditions: human, 37° C., initial concentration 10 μM
# Description: (§6) • Plasma: Human plasma is commercially available. • Reagents: DMSO (dimethyl sulfoxide), disodium hydrogen phosphate, sodium dihydrogen phosphate, methanol, formic acid, and propranolol (internal standard) are commercially available. • Instrument: AB SCIEX QTRAP 5500+.
# as §1, §2, §3, §4, §5
# [4] = in vitro; conditions: human, plasma
# Description: as §6, §1, §2, §3, §4, §5
# [5] = Toxicological experiment: serum UREA and CREA after 5 days of i.v. dosing; type: in vivo, SD rats
# Description: The compounds of Examples 1-8 were accurately weighed into suitable EP tubes, and the vehicle (saline) was added to formulate a solution of a concentration of 15 mg/mL. The solution was filtered using a 0.2 μm filter for future use.
# A total of 18 male SD rats of 6-7 weeks of age were used for test. After the animal quarantine and acclimatization period, the animals were randomly divided into 6 groups according to their body weights measured before grouping, vehicle control group (saline) as well as example compounds groups, 3 animals/group. Using the above prepared solution, the animal was administered intravenously via the tail vein at a dosage of 30 mg/kg and a dosing volume of 2 mL/kg. The dosing volume for each animal was calculated according to the body weight. Administration was performed once daily for 5 consecutive days. After 2 h of administration on day 5, the animals were deeply anesthetized by intraperitoneal injection of sodium pentobarbital. The thoracic cavity was opened, and blood was collected from the abdominal aorta into blood collection tubes containing inert separation gel and coagulant. The serum was collected by centrifugation (4000 rpm, 10 min) after about 1 h of resting. The concentrations of UREA and CREA in the serum were detected using a biochemical analyzer. The percentage change of each example compound relative to the vehicle control group was calculated using the formula: %=(Concentration of example compound−Concentration of vehicle control group)/Concentration of vehicle control group.
# [6] = plasma, With tPA T1/2, cell-penetrating peptide, human plasma, initial concentration 10 μM, with tPA
# [7] = plasma, Without tPA T1/2, cell-penetrating peptide, human plasma, initial concentration 10 μM, without tPA
# [8] = With tPA T1/2, human plasma, with rt-PA […]
# [9] = Without tPA T1/2, human plasma, without tPA
# [10] = male SD rats, 30 mg/kg i.v. once daily for 5 days, serum 2 h after dosing on day 5
# PDZ1-2 of PSD95, sequence (P78352 61-249 limits assumed): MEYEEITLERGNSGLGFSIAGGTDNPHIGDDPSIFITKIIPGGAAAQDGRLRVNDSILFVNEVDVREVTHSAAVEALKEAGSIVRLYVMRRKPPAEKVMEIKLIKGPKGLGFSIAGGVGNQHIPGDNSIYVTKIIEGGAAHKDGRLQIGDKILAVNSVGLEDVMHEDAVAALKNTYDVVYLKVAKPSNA
structure (smiles),measurement,setting,value
CNC(=N)NCCC[C@H](NC(=O)[C@H](CCC(N)=O)NC(=O)[C@@H](CCCNC(=N)N)NC(=O)[C@H](CCCNC(=N)N)NC(=O)[C@H](CCCCN)NC(=O)[C@H](CCCCN)NC(=O)[C@@H](CCCNC(=N)N)NC(=O)CNC(=O)[C@@H](N)Cc1ccc(O)cc1)C(=O)N[C@@H](CCCNC(=N)N)C(=O)N[C@@H](CCCNC(=N)N)C(=O)O [TAT-5],half-life at 10 μM,[1]; [6],12.3 h
same,half-life at 10 μM,[1]; [7],> 33.3 h
CC[C@H](C)[C@H](NC(=O)[C@H](CO)NC(=O)[C@H](CO)NC(=O)[C@H](CC(C)C)NC(=O)[C@@H](CCCCN)NC(=O)[C@H](CCCNC(=N)N)NC(=O)[C@H](CCCNC(=N)N)NC(=O)[C@H](CCCNC(=N)NC)NC(=O)[C@H](CCC(N)=O)NC(=O)[C@@H](CCCNC(=N)N)NC(=O)[C@H](CCCNC(=N)N)NC(=O)[C@H](CCCCN)NC(=O)[C@H](CCCCN)NC(=O)[C@](C)(CCCNC(=N)N)NC(=O)CNC(=O)[C@@H](N)Cc1ccc(O)cc1)C(=O)N[C@@H](CCC(=O)O)C(=O)N[C@@H](CO)C(=O)N[C@@H](CC(=O)O)C(=O)N[C@H](C(=O)O)C(C)C (relative stereo) [Compound I13],IC50,[2],6.33 µM
same,half-life at 10 μM,[3]; [8],14.5 h
same,half-life at 10 μM,[3]; [9],10.7 h
CC[C@H](C)[C@H](NC(=O)[C@H](CO)NC(=O)[C@H](CO)NC(=O)[C@H](CC(C)C)NC(=O)[C@@H](CCCCN)NC(=O)[C@H](CCCNC(=N)N)NC(=O)[C@H](CCCNC(=N)N)NC(=O)[C@H](CCCNC(=N)NC)NC(=O)[C@H](CCC(=O)O)NC(=O)[C@@H](CCCNC(=N)N)NC(=O)[C@H](CCCNC(=N)N)NC(=O)[C@H](CCCCN)NC(=O)[C@H](CCCCN)NC(=O)[C@@H](CCCNC(=N)N)NC(=O)CNC(=O)[C@@H](N)Cc1ccc(O)cc1)C(=O)N[C@@H](CCC(=O)O)C(=O)N[C@@H](CO)C(=O)N[C@@H](CC(=O)O)C(=O)N[C@H](C(=O)O)C(C)C [Compound I1] (H-YG[dR]KKR[dR]E[Arg(Me)]RR[dK]LSSIESDV-OH),half-life,[4]; With tPA T1/2,9.18 h
same,half-life,[4]; Without tPA T1/2,18.6 h
"N=C(N)NCCC[C@H](NC(=O)[C@H](CCCNC(=N)N)NC(=O)[C@H](CCCNC(=N)N)NC(=O)[C@H](CCC(N)=O)NC(=O)[C@H](CCCNC(=N)N)NC(=O)[C@H](CCCNC(=N)N)NC(=O)[C@H](CCCCN)NC(=O)[C@H](CCCCN)NC(=O)[C@H](CCCNC(=N)N)NC(=O)CNC(=O)[C@@H](N)Cc1ccc(O)cc1)C(=O)O [TAT-1, reference compound]",half-life at 10 μM,[1]; [7],1.52 h
N=C(N)NCCC[C@H](NC(=O)[C@H](CCCNC(=N)N)NC(=O)[C@@H](CCCNC(=N)N)NC(=O)[C@H](CCC(=O)O)NC(=O)[C@@H](CCCNC(=N)N)NC(=O)[C@H](CCCNC(=N)N)NC(=O)[C@H](CCCCN)NC(=O)[C@H](CCCCN)NC(=O)[C@@H](CCCNC(=N)N)NC(=O)CNC(=O)[C@@H](N)Cc1ccc(O)cc1)C(=O)O [TAT-4],half-life at 10 μM,[1]; [6],14.9 h
same,half-life at 10 μM,[1]; [7],11.9 h
CNC(=N)NCCC[C@H](NC(=O)[C@H](CCC(=O)O)NC(=O)[C@@H](CCCNC(=N)N)NC(=O)[C@H](CCCNC(=N)N)NC(=O)[C@H](CCCCN)NC(=O)[C@H](CCCCN)NC(=O)[C@@H](CCCNC(=N)N)NC(=O)CNC(=O)[C@@H](N)Cc1ccc(O)cc1)C(=O)N[C@@H](CCCNC(=N)N)C(=O)N[C@@H](CCCNC(=N)N)C(=O)O [TAT-6],half-life at 10 μM,[1]; [6],4.3 h
same,half-life at 10 μM,[1]; [7],2.83 h
N=C(N)NCCC[C@H](NC(=O)[C@@H](CCCNC(=N)N)NC(=O)[C@H](CCC(N)=O)NC(=O)[C@@H](CCCNC(=N)N)NC(=O)[C@H](CCCNC(=N)N)NC(=O)[C@H](CCCCN)NC(=O)[C@H](CCCCN)NC(=O)[C@@H](CCCNC(=N)N)NC(=O)CNC(=O)[C@@H](N)Cc1ccc(O)cc1)C(=O)O [TAT-3] (H-YG[dR]KKR[dR]Q[dR]R-OH),half-life at 10 μM,[1]; plasma,21.7 h
same,half-life at 10 μM,[1]; plasma with added rt-PA,27.5 h
CC[C@H](C)[C@H](NC(=O)CCOCCOCCN(CCOCCOCCC(=O)N[C@H](C(=O)N[C@@H](CCC(=O)O)C(=O)N[C@H](C(=O)N[C@@H](CC(=O)O)C(=O)N[C@H](C(=O)O)C(C)C)[C@@H](C)O)[C@@H](C)CC)C(=O)[C@H](CCCNC(=N)N)NC(=O)[C@H](CCCNC(=N)N)NC(=O)[C@@H](CCCNC(=N)N)NC(=O)[C@H](CCC(=O)O)NC(=O)[C@@H](CCCNC(=N)N)NC(=O)[C@H](CCCNC(=N)N)NC(=O)[C@H](CCCCN)NC(=O)[C@H](CCCCN)NC(=O)[C@@H](CCCNC(=N)N)NC(=O)CNC(=O)[C@@H](N)Cc1ccc(O)cc1)C(=O)N[C@@H](CCC(=O)O)C(=O)N[C@H](C(=O)N[C@@H](CC(=O)O)C(=O)N[C@H](C(=O)O)C(C)C)[C@@H](C)O [Compound 65],"CREA, percentage change compared to vehicle control group",[5]; [10],−3.3%
same,"UREA, percentage change compared to vehicle control group",[5]; [10],23.7%
same,half-life at 10 μM,[3]; [8],10.5 h
same,half-life at 10 μM,[3]; [9],> 33.3 h
CC[C@H](C)[C@H](NC(=O)CCOCCOCCN(CCOCCOCCC(=O)N[C@H](C(=O)N[C@@H](CCC(=O)O)C(=O)N[C@H](C(=O)N[C@@H](CC(=O)O)C(=O)N[C@H](C(=O)O)C(C)C)[C@@H](C)O)[C@@H](C)CC)C(=O)[C@H](CCCNC(=N)N)NC(=O)[C@H](CCCNC(=N)N)NC(=O)[C@@H](CCCNC(=N)N)NC(=O)[C@H](CCC(N)=O)NC(=O)[C@@H](CCCNC(=N)N)NC(=O)[C@H](CCCNC(=N)N)NC(=O)[C@H](CCCCN)NC(=O)[C@H](CCCCN)NC(=O)[C@@H](CCCNC(=N)N)NC(=O)CNC(=O)[C@@H](N)Cc1ccc(O)cc1)C(=O)N[C@@H](CCC(=O)O)C(=O)N[C@H](C(=O)N[C@@H](CC(=O)O)C(=O)N[C@H](C(=O)O)C(C)C)[C@@H](C)O [Compound 43],half-life,"[4]; With tPA T1/2, human plasma, 37° C., initial concentration 10 μM, with rt-PA […]",20.5 h
same,half-life,"[4]; Without tPA T1/2, human plasma, 37° C., initial concentration 10 μM, without tPA",> 33.3 h
"CC[C@H](C)[C@H](NC(=O)[C@H](CO)NC(=O)[C@H](CO)NC(=O)[C@H](CC(C)C)NC(=O)[C@@H](CCCCN)NC(=O)[C@H](CCCNC(=N)N)NC(=O)[C@H](CCCNC(=N)N)NC(=O)[C@@H](CCCNC(=N)N)NC(=O)[C@H](CCC(N)=O)NC(=O)[C@@H](CCCNC(=N)N)NC(=O)[C@H](CCCNC(=N)N)NC(=O)[C@H](CCCCN)NC(=O)[C@H](CCCCN)NC(=O)[C@@H](CCCNC(=N)N)NC(=O)CNC(=O)[C@@H](N)Cc1ccc(O)cc1)C(=O)N[C@@H](CCC(=O)O)C(=O)N[C@@H](CO)C(=O)N[C@@H](CC(=O)O)C(=O)N[C@H](C(=O)O)C(C)C [NoNo-42, reference compound] (H-YG[dR]KKR[dR]Q[dR]RR[dK]LSSIESDV-OH; N-terminus and C-terminus assumed)",IC50,[2],9.71 µM
same,"CREA, percentage change compared to vehicle control group","[5]; rat, in vivo, iv, 30 mg/kg",308.8%
same,"UREA, percentage change compared to vehicle control group","[5]; rat, in vivo, iv, 30 mg/kg",237.9%
same,half-life at 10 μM,[4],6.88 h
CC[C@H](C)[C@H](NC(=O)[C@H](CO)NC(=O)[C@H](CO)NC(=O)[C@H](CC(C)C)NC(=O)[C@@H](CCCCN)NC(=O)[C@H](CCCNC(=N)N)NC(=O)[C@H](CCCNC(=N)N)NC(=O)[C@H](CCCNC(=N)NC)NC(=O)[C@H](CCC(=O)O)NC(=O)[C@@H](CCCNC(=N)N)NC(=O)[C@H](CCCNC(=N)N)NC(=O)[C@H](CCCCN)NC(=O)[C@H](CCCCN)NC(=O)[C@](C)(CCCNC(=N)N)NC(=O)CNC(=O)[C@@H](N)Cc1ccc(O)cc1)C(=O)N[C@@H](CCC(=O)O)C(=O)N[C@@H](CO)C(=O)N[C@@H](CC(=O)O)C(=O)N[C@H](C(=O)O)C(C)C (relative stereo) [Compound I15],IC50,[2],7.89 µM
same,half-life,[4]; With tPA T1/2,27.2 h
same,half-life,[4]; Without tPA T1/2,> 33.3 h

# — US20260199492A1, “PSD-95 DOMAIN INHIBITOR, AND PREPARATION METHOD THEREFOR AND USE THEREOF” (SHENZHEN SALUBRIS PHARMACEUTICALS CO., LTD, priority 2023, published 2026)
